# What was measured:
# [1] = system: pilocarpine-induced seizures; experiment: Pilocarpine-induced model of temporal lobe seizures; type: in vivo, rat; conditions: pilocarpine 380 mg/kg
# Description: (§1) Pure THCV was injected intra-peritoneally (IP) in the standard vehicle (1:1:18 ethanol:Cremophor:0.9% w/v NaCl) at doses of 0.025, 0.25 and 2.5 mg/kg alongside animals that received vehicle alone at a matched volume (n≧14 for each group). 15 minutes later methylscopolamine (1 mg/kg; to reduce peripheral muscarinic effects of pilocarpine) was administered followed, 45 minutes later by pilocarpine (380 mg/kg, IP) administration.
# as §1, with “CBD” for “THCV”, “1, 10” for “0.025, 0.25”, “100” for “2.5”
# PTZ-induced seizures = experiment: PTZ (pentylenetetrazole)-induced model of generalised seizures; type: in vivo, rat
# [2] = system: penicillin-induced seizures; experiment: Penicillin-induced model of partial seizures; type: in vivo, rat; conditions: for development of the most severe seizures (tonic-clonic seizures without postural control): 150 IU penicillin
# Description: CBD (1, 10 and 100 mg/kg) or CBD vehicle (1:1:18 ethanol:Cremophor: 0.9% w/v NaCl) was administered i.p. to adult male Wistar rats (>250 g). One week prior to this, animals had been surgically implanted with a cannula into the right lateral ventricle under anaesthesia. One hour after CBD administration, 150 IU penicillin was infused into the right lateral ventricle in 1.5 μl saline solution over one minute and seizure behaviour video recorded for two hours.
# Following detailed examination of animal responses to penicillin alone (using data obtained from vehicle control groups, a finalised seizure scoring scale for penicillin-induced partial seizures has been derived. The following scoring system which was derived from several existing and published scoring systems for this model, will therefore be used for analysis of drug effects upon such seizures.
# [3] = system: seizures in institutionalized children; conditions: 5 institutionalized children not responding to phenobarbital and phenytoin; cited from earlier work
smiles,measurement,setting,value
"CCCc1cc(O)c2c(c1)OC(C)(C)[C@@H]1CCC(C)=C[C@@H]21 [THCV, tetrahydrocannabivarin]",percentage of animals showing bilateral forelimb clonus with rearing and falling,[1]; 0.25 mg/kg THCV,significant increase
same,percentage of animals showing bilateral forelimb clonus with rearing and falling,"[1]; THCV doses other than 0.25 mg/kg (0.025, 2.5 mg/kg)",this effect was not seen at any other dose
same,latency to the onset of seizure,"[1]; pure THCV 0.025, 0.25, 2.5 mg/kg IP",No significant effect
same,mean maximum severity of seizure,"[1]; pure THCV 0.025, 0.25, 2.5 mg/kg",no effect
same,percentage mortality vs control,[1]; pure THCV any dose,No significant change
same,percentage of animals showing bilateral forelimb clonus,[1]; pure THCV any dose,no significant changes
same,percentage of animals showing tonic-clonic seizures,[1]; pure THCV any dose,no significant changes
same,percentage of animals showing unilateral forelimb clonus,[1]; pure THCV any dose,no significant changes
same,latency to first manifestation of seizure-like behaviour,"PTZ-induced seizures; pure THCV 0.025, 0.25, 2.5 mg/kg vs vehicle, 80 mg/kg PTZ",increased latency
same,latency to score of [5],"PTZ-induced seizures; pure THCV all doses, 80 mg/kg PTZ, p=0.013 at highest dose","increased latencies, reaching a significant level at the highest dose of THCV"
same,latency to score of [3],"PTZ-induced seizures; pure THCV all doses, 80 mg/kg PTZ, p=0.017 at highest dose","increased latencies, reaching a significant level at the highest dose of THCV"
same,delay of seizure onset (latency to first seizure sign),"PTZ-induced seizures; pure THCV highest dose 2.5 mg/kg, 80 mg/kg PTZ, p=0.02",delay of onset was significant
same,duration of PTZ-induced seizures in animals that survived,"PTZ-induced seizures; pure THCV medium dose 0.25 mg/kg vs vehicle, 80 mg/kg PTZ, p=0.03",significantly shorter
"C=C(C)[C@@H]1CCC(C)=C[C@H]1c1c(O)cc(CCCCC)cc1O [CBD, cannabidiol]",percentage mortality vs control,[1]; 10 mg/kg CBD,significant increase
same,percentage duration of time spent in a tonic-clonic state compared to the total duration of the seizure period,[1]; CBD 1 mg/kg and 100 mg/kg,significantly reduced
same,percentage of animals exhibiting tonic-clonic seizures,[1]; CBD 1 mg/kg and 100 mg/kg,significantly reduced
same,mean frequency of all other seizure scores,"[1]; CBD 1, 10, 100 mg/kg vs control",no significant differences
same,mean tonic-clonic frequency,"[1]; CBD all doses tested (1, 10, 100 mg/kg)",significant reduction
same,percentage of animals manifesting with bilateral forelimb clonus with rearing and falling,[1]; CBD doses >1 mg/kg,significantly reduces
same,percentage of animals showing unilateral forelimb clonus,[1]; CBD doses >1 mg/kg,significant decreases
same,latency to the onset of seizure,"[1]; pure CBD 1, 10, 100 mg/kg IP",No significant effect
same,mean maximum severity of seizure,"[1]; pure CBD 1, 10, 100 mg/kg",no effect
same,percentage of animals exhibiting bilateral forelimb clonus,"[1]; pure CBD 1, 10, 100 mg/kg",no significant differences
same,animals that died (mortality),"PTZ-induced seizures; 100 mg/kg CBD IP, 60 minutes before 80 mg/kg PTZ, p<0.001 vs vehicle",6.7%
same,frequency with which animals experienced the most severe seizures,"[2]; 10 mg/kg CBD vs vehicle, p=0.071",near-significant effect
same,development of the most severe seizures (tonic-clonic seizures without postural control),"[2]; 100 mg/kg CBD i.p., p=0.001",completely prevented development
same,frequency with which animals experienced the most severe seizures,"[2]; 100 mg/kg CBD vs vehicle, p=0.006",significant decrease
same,median severity of penicillin-induced seizures,"[2]; 100 mg/kg CBD vs vehicle, p=0.012",significantly reduced
same,mortality compared to vehicle,"[2]; 100 mg/kg CBD, p=0.057",near-significant effect
same,development of the most severe seizures (tonic-clonic seizures without postural control),"[2]; 1 and 10 mg/kg CBD i.p., p=0.076 for both",Near-significant decreases
same,proportion of animals that remained seizure-free,"[2]; all doses of CBD (1, 10 and 100 mg/kg), p<0.001",significantly increased
"CCCCCc1cc(O)c2c(c1)OC(C)(C)[C@@H]1CCC(C)=C[C@@H]21 [THC, tetrahydrocanibinol]",seizure outcome,[3],"One became entirely free of seizures, one became almost completely free of seizures, and the other three did no worse than before"

# Source: US9522123B2, “Use of one or a combination of phyto-cannabinoids in the treatment of epilepsy” (GW Pharma Limited, priority 2009, dated 2016)
